# Assay results reported in patent publication US20080206744A1, “Functional Genomics and Gene Trapping in Haploid or Hypodiploid Cells” (priority 2004, published 2008).
# System: palmitoylation of GAP43:GFP in MDCK cells
# Experiment: Localization of the palmitoylation reporter GAP43:GFP at the plasma membrane, by microscopy and HTM algorithm
# Type: cell-based
# Details: for effect on palmitoylation / PM localization of GAP43:GFP: MDCK cells transiently transfected with GAP43:GFP, incubation in 100 μM 2BP
# Description: FIGS. 2A-2D provide characterization of the reporter of S-palmitoylation. […] Cells in FIGS. 2B, 2C and 2D are representative of many having the same morphology.
# FIGS. 5A-5D illustrate the simple case of quantifying whether or not GAP43:GFP is on the PM or in the cytoplasm using the HTM algorithm. In this analysis, MDCK cells (the same images as presented in FIGS. 2A-2D), transiently transfected with GFP alone are presented in FIG. 5A; transiently transfected with GAP43:GFP are presented in FIG. 5B; and transiently transfected with GAP43:GFP in the presence of 100 μM 2BP are presented in FIG. 5C.
# FIG. 6 presents a quantitative analysis of the time course of translocation of GAP43:GFP from the plasma membrane in response to 100 μM 2BP: residence half life of palmitoylation. MDCK cells stably expressing GAP43:GFP were exposed to 100 μM 2BP for 6 hours. During this time, the same field of view of cells was imaged repeatedly in two channels Hoechst/nucleus (see FIG. 6A) and GFP/PM (see FIG. 6B) on the EIDAQ100 (the three images: 6A, 6B and 6C are at time 0). The PM mask (green lines) defined by the program is shown in FIG. 6C; the nucleus is delimited by red lines. By determining the average fluorescence intensity of the area defined by the PM mask (see FIG. 6D), PM labeling was reduced by 80% from the maximum (or starting) density during the 6 hour period.
# This algorithm is able to make a simple binary decision of whether GAP43:GFP is on the PM or in the cytoplasm (see FIG. 5) as well as fine incremental determinations (see FIG. 6) of the quantity of fluorescence on the PM, thereby extending the capability beyond what is necessary to score the primary screen for trapped genes. Two important questions are answered here. Data in FIGS. 5A-5D illustrate that the algorithm is sufficient to ensure success in a screen to find genes critical in the pathway for palmitoylation of the reporter in an ICR-2A reporter cell line.
smiles,measurement,setting,value
"CCCCCCCCCCCCCCC(Br)C(=O)O (stereo not drawn) [2BP, 2-bromopalmitate]",reduction of PM labeling (average fluorescence intensity of the area defined by the PM mask) from the maximum (starting) density,"MDCK cells stably expressing GAP43:GFP, 100 μM 2BP, 6 hour period, EIDAQ100 imaging",80%
same,effect on palmitoylation / PM localization of GAP43:GFP,,localization to the PM has been inhibited
same,effect on palmitoylation / PM localization of GAP43:GFP,listed as 2-bromopalmitate,palmitoylation is inhibited
